One test has as its system washed platelets. The experiment in a line: Platelet Agglutination Inhibition (P.A.), collagen-induced. It is filed as cell-based, human (healthy person). The settings on record: Homo sapiens, washed platelets, collagen, 37° C., read-out: P.A. (IC50). The method, then:
To this suspension was added one sixth volume of ACD solution, and the whole was further centrifuged at 1500×G for 5 minutes to prepare a platelet pellet. The platelet pellet was then suspended in a modified HEPES Tyrode solution to obtain about 3×10^5 /μl in washed platelet suspension.
To 270 μl of the washed platelet suspension was added 3 μl of a solution of a test compound dissolved in an appropriate medium in different concentration, and the mixture was pre-incubated at 37° C. for 2 minutes.
As a control, the above-mentioned procedure was carried out except that the test medium without a test compound was used, and the absorbance before addition of collagen and the maximum absorbance after addition of collagen were measured, and the difference between both absorbances was taken as 100% agglutination.
For test compound, the absorbance before an addition of collagen and the maximum absorbance after an addition of collagen were measured, and a percent of the inhibition was determined, compared with the control.

The target of test [1] is Calmodulin-Dependent Phosphodiesterase (Ca^2+ PDE). Nature of the test: Calmodulin-Dependent Phosphodiesterase Inhibition (Ca^2+ PDE). It is filed as biochemical, rat. The settings on record: [^3 H]-cGMP, 30° C. As to the method:
Phosphodiesterase (Ca^2+ PDE)Ca^2+ PDE was partially purified from the brain of rat by DEAE-Sepharose column chromatography.
Calmodulin was purified from the calf brain using a calmodulin inhibitor W-7 affinity column.
A reaction mixture contained 20 μl of 500 mM Tris-HCl (pH 8.0), 20 μl of 50 mM MgCl2, 20 μl of 2 mM CaCl2 (or 10 mM EGTA), 20 μl of 1 mg/ml bovine serum albumin, PDE, […] of calmodulin, test sample and distilled water to make total volume 200 μl. To the mixture was added 20 μl of 4 μM [^3 H]-cGMP (2.5 μCi/ml), the mixture was incubated at 30° C. for 15 minutes, and then heated in boiling water for 3 to 5 minutes to terminate the reaction, and cooled in ice-water bath. 20 μg of 5'-nucleotidase (Snake venum) was added to the mixture, and the mixture was again incubated at 30° C. for 10 minutes. After addition of about 2 ml of water, the sample was applied to a cation exchange resin column (Biorad AG.AG50W-X4 to adsorbe the [^3 H]-guanosine and additionally about 2 ml of washing water for the sample was added to the column. The column was washed with about 20 ml of water, and the adsorbed [^3 H]-guanosine was eluted with 3 ml of 3N NH4 OH, and the elute was directly received by a vial. After an addition of 10 ml of an emulsified scintillation solution (ACS-II, AMERSHAM) the radio activity was measured by a scintillation counter LS7500 (Beckmann). The enzyme activity in the presence of calmodulin was taken as […], and a concentration of a test compound in μM which provides a 50% inhibition was expressed as IC50.

For test [2], the system named is superior mesenteric artery (contracted by potassium chloride). Nature of the test: Vessel Smooth Muscle Relaxation Action (V.R.). The settings on record: Oryctolagus cuniculus; concentration relaxing KCl-contracted strain to 50%; cumulative administration; read-out: V.R. (ED50). The test is classed as cell-based, rabbit. The source says: The specimen was suspended by loading a strain in Krebs-Henseleit solution through which an oxygen gas containing 5% carbon dioxide was bubbled. The specimen was contracted by adding potassium chloride to maintain a predetermined strain. Thereafter, a test compound was cumulatively administrated.

For orientation: IC50 means the concentration that inhibits the measured activity by half.

In the case of `Cc1ccc(S(=O)(=O)N(C)c2ccc(CC(C(=O)N3CCN(c4ccccc4)CC3)N(C)S(=O)(=O)c3cccc4cnccc34)cc2)cc1` (centres unmarked) [Example 26, 1-{N-(5-isoquinolinesulfonyl)-N-methyl-p-[N'-methyl-N'-(p-toluenesulfonyl)amino]phenylalanyl}-4-phenylpiperazine], the IC50 with washed platelets came to 10 µM.

In the case of `O=S(=O)(NC(Cc1ccc(O)cc1)CN1CCN(c2ncccn2)CC1)c1cccc2cnccc12` (centres unmarked) [Example 40, N-{1-(p-hydroxybenzyl)-2-[4-(2-pyrimidyl)piperazinyl]ethyl}-5-isoquinolinesulfonamide], the IC50 with washed platelets worked out at 4.7 µM.

Consider `CN(C(Cc1ccc(OS(=O)(=O)c2cccc3cnccc23)cc1)CN1CCN(C(=O)OCc2ccccc2)CC1)S(=O)(=O)c1cccc2cnccc12` (centres unmarked) [Example 60, N-{2-(4-Benzyloxycarbonylpiperazinyl)-1-[P-(5-Isoquinolinesulfonyloxy)Benzyl]Ethyl}-N-Methyl-5-Isoquinolinesulfonamide], for which, in the test on washed platelets, the IC50 worked out at 10 µM.

As for `CN(C(Cc1ccc(OS(=O)(=O)c2cccc3cnccc23)cc1)CN1CCN(S(=O)(=O)c2ccccc2)CC1)S(=O)(=O)c1cccc2cnccc12` (centres unmarked) [Example 61, N-{2-[(4-Benzenesulfonyl)Piperazinyl]-1-[P-(5-Isoquinolinesulfonyloxy)Benzyl]Ethyl}-N-Methyl-5-Isoquinolinesulfonamide], the IC50 in the test with washed platelets was found to be 10 µM.

For `CN(C(Cc1ccc(OS(=O)(=O)c2cccc3cnccc23)cc1)CN1CCN(C(=O)c2ccccc2)CC1)S(=O)(=O)c1cccc2cnccc12` (centres unmarked) [Example 74, N-{2-(4-Benzoylpiperazinyl)-1-[P-(5-Isoquinolinesulfonyloxy)Benzyl]Ethyl}-N-Methyl-5-Isoquinolinesulfonamide], the IC50 with washed platelets was determined as 2.8 µM.

For `CN(Cc1ccccc1)C1CCN(CC(Cc2ccc(O)cc2)N(C)S(=O)(=O)c2cccc3cnccc23)CC1` (centres unmarked) [Example 97, N-{2-[4-(N-Benzyl-N-Methylamino)Piperidino]-1-(P-Hydroxybenzyl)Ethyl}-N-Methyl-5-Isoquinolinesulfonamide], in the test with washed platelets, the IC50 was determined as 39 µM.

In turn, `Cc1ccc(CN(C(Cc2ccc(O)cc2)CN2CCC(O)CC2)S(=O)(=O)c2cccc3cnccc23)cc1` (centres unmarked) [Example 106, N-[1-(P-Hydroxybenzyl)-2-(4-Hydroxypiperidino)Ethyl]-N-P-Methylbenzyl-5-Isoquinolinesufonamide] displayed an IC50 in test [1] of 28 µM. Moreover, the EC50 in test [2] came out at 8.9 µM.

In test [1], `O=C([C@H](Cc1ccc(OS(=O)(=O)c2cccc3cnccc23)cc1)NS(=O)(=O)c1cccc2cnccc12)N1CCN(c2ccccc2)CC1` [Example 108, 1-[N,O-Bis(5-Isoquinolinesulfonyl)Tyrosyl]-4-Phenylpiperazine] displayed an IC50 of 10 µM. Moreover, the EC50 in test [2] is 1.2 µM.

In test [1], `CN([C@@H](Cc1ccc(OS(=O)(=O)c2cccc3cnccc23)cc1)C(=O)N1CCN(c2ccccc2)CC1)S(=O)(=O)c1cccc2cnccc12` [Example 109, 1-[N,O-Bis(5-Isoquinolinesulfonyl)-N-Methyltyrosyl]-4-Phenylpiperazine] came in with an IC50 of 1.3 µM. Also, the EC50 in test [2] was 0.59 µM.

In test [1], `CN([C@@H](Cc1ccc(O)cc1)C(=O)N1CCN(c2ccccc2)CC1)S(=O)(=O)c1cccc2cnccc12` [Example 110, 1-[N-(5-Isoquinolinesulfonyl)-N-Methyltyrosyl]-4-Phenylpiperazine] displayed an IC50 of 9.3 µM. Also, the EC50 in test [2] came out at 3.8 µM.

The molecule `O=C([C@H](Cc1ccc(O)cc1)NS(=O)(=O)c1cccc2cnccc12)N1CCN(c2ccccc2)CC1` [Example 111, 1-[N-(5-isoquinolinesulfonyl)tyrosyl]-4-phenylpiperazine] registered an IC50 in test [1] of 77 µM. Moreover, the EC50 in test [2] was determined as 7 µM.

For `O=C(CCc1ccccc1)N1CCCN(CC(Cc2ccc(O)cc2)NS(=O)(=O)c2cccc3cnccc23)CC1` (centres unmarked) [Example 119, N-{1-(P-Hydroxybenzyl)-2-[4-(3-Phenylpropionyl)Homopiperazinyl]Ethyl}-5-Isoquinolinesulfonylamide], the IC50 in test [1] stood at 51 µM. Moreover, the EC50 in test [2] is 11 µM.

Turning to `COc1ccc(N2CCN(CC(Cc3ccc(N4C(=O)c5ccccc5C4=O)cc3)N(C)S(=O)(=O)c3cccc4cnccc34)CC2)cc1` (centres unmarked) [Example 126, N-{2-[4-(P-Methoxyphenyl)Piperazinyl]-1-(P-Phthalimidebenzyl)Ethyl}-N-Methyl-5-Isoquinolinesulfonamide], in the test on washed platelets, the IC50 was 10 µM.

`O=S(=O)(Nc1ccccc1NCC=Cc1ccc(Cl)cc1)c1cccc2cnccc12` [Example 142, N-[2-(4-Chlorocinnamylamino)Phenyl]-5-Isoquinolinesulfonamide] registered an IC50 in test [1] of 1.1 µM. For the same molecule, in test [2], the EC50 turned out to be 6.8 µM.

`CN(c1ccccc1NCC=Cc1ccc(Cl)cc1)S(=O)(=O)c1cccc2cnccc12` [Example 143, N-[2-(4-Chlorocinnamylamino)Phenyl]-N-Methyl-5 -Isoquinolinesulfonamide] displayed an IC50 in test [1] of 15 µM. In test [2], the EC50 was determined as 0.82 µM.

The molecule `O=S(=O)(c1cccc2cnccc12)N1CCN(CC=Cc2ccc(Cl)cc2)c2ccccc21` [Example 144, 1-(4-Chlorocinnamyl)-4-(5-Isoquinolinesulfonyl)-1,2,3,4-Tetrahydroquinoxaline] returned an IC50 in test [1] of 1 µM. Also, the EC50 in test [2] was 1.8 µM.

In test [1], `O=S(=O)(Nc1ncccc1NCC=Cc1ccc(Cl)cc1)c1cccc2cnccc12` [Example 147, 3-(4-Chlorocinnamylamino)-2-(5-Isoquinolinesulfonylamino)Pyridine] had an IC50 of 42 µM. Also, in test [2], the EC50 came out at 1.2 µM.

For the molecule `CC(C=Cc1ccccc1[N+](=O)[O-])NCCNS(=O)(=O)c1cccc2cnccc12` (centres unmarked) [Example 158], the IC50 in test [1] came out at 21 µM. The EC50 in test [2] amounted to 17 µM.

As to `O=S(=O)(NCCNCC=Cc1ccc(F)cc1)c1cccc2cnccc12` [Example 175, N-[2-(4-Fluorocinnamylamino)ethyl]-5-Isoquinolinesulfonamide], the concentration for half-maximal inhibition (IC50) in test [1] was determined as 13 µM. The EC50 in test [2] was found to be 2 µM.

On to `COc1ccc(C=CCNCCNS(=O)(=O)c2cccc3cnccc23)cc1` [Example 178, N-[2-(4-Methoxycinnamylamino)ethyl]-5-Isoquinolinesulfonamide], for which, in test [1], it took 50 µM to reach half-maximal inhibition (IC50). The EC50 in test [2] amounted to 2.4 µM.

As for `O=S(=O)(NCCNCC=CC=Cc1ccc(C(F)(F)F)cc1)c1cccc2cnccc12` [Example 180, N-{2-[5-(4-Trifluoromethylphenyl)-2,4-Pentadienylamino]Ethyl}-5-Isoquinolinesulfonamide], the IC50 in test [1] turned out to be 4.8 µM. Moreover, in test [2], the EC50 was found to be 1.8 µM.

`O=S(=O)(NCCNCC=Cc1cccc2ccccc12)c1cccc2cnccc12` [Example 184, N-{2-[3-(1-Naphthyl)-2-Propenylamino]ethyl}-5-Isoquinolinesulfonamide] gave an IC50 in test [1] of 12 µM. In test [2], the EC50 came out at 2.8 µM.

In turn, `O=S(=O)(NCCNCC#Cc1ccc(Cl)cc1)c1cccc2cnccc12` [Example 189-I, N-{2-[3-(4-Chlorophenyl)-2-Propynylamino]Ethyl}-5-Isoquinolinesulfonamide] yielded an IC50 in test [1] of 2.7 µM. Moreover, the EC50 in test [2] amounted to 0.22 µM.

For `O=S(=O)(c1cccc2cnccc12)N(CC#Cc1ccc(Cl)cc1)CCNCC#Cc1ccc(Cl)cc1` [Example 189-III], it took 1 µM to reach half-maximal inhibition in test [1] (IC50). In addition, the EC50 in test [2] amounted to 0.29 µM.

In the case of `O=S(=O)(c1cccc2cnccc12)N1CCN(CC=Cc2ccc(Cl)cc2)CC1` [Example 191, 1-(4-Chlorocinnamyl)-4-(5-Isoquinolinesulfonyl)Piperazine], it took 26 µM to reach half-maximal inhibition in test [1] (IC50). The EC50 in test [2] came to 1.9 µM.

Molecule `CCN(CC=Cc1ccc(Cl)cc1)CCN(CC)S(=O)(=O)c1cccc2cnccc12` [Example 192, N-Ethyl-N-[2-(4-Chloro-N-Ethylcinnamylamino)Ethyl]-5-Isoquinolinesulfonamide] showed an IC50 in test [1] of 84 µM. The EC50 in test [2] worked out at 0.12 µM.

In test [1], `O=CN(CC=Cc1ccc(Cl)cc1)CCNS(=O)(=O)c1cccc2cnccc12` [Example 193, N-[2-(4-Chloro-N-Formylcinnamylamino)ethyl]-5-Isoquinolinesulfonamide] gave an IC50 of 12 µM. In test [2], the EC50 stood at 3.2 µM.

Source of the values: patent US5245034A, “Compound having vessel smooth muscle relaxation activity” (Hidaka; Kiroyoshi, priority 1988, dated 1993).
